Here are results for 46 compounds from the RepoRT retention time repository.

A short description of this data set: Waters XBridge BEH C18, 150 × 1 mm, 1.7 µm, 30 °C, 0.04 mL/min, estimated dead time 1.9 min; A: 79.7% water + 20% methanol + 0.3% acetic acid; B: 99.7% methanol + 0.3% acetic acid; gradient (min/%B) 0/0 17/58.7 17.2/100 20.2/100. The note with it: stereoisomer not certain.
For `CNC(C)Cc1ccc2c(c1)OCO2` (stereo unspecified), the LC retention time is 8.3 min.
`O=C1CN=C(c2ccccc2)c2cc([N+](=O)[O-])ccc2N1`: the LC retention time was 19.8 min.
As to `COc1ccc2c3c1OC1C(O)C=CC4C(C2)N(C)CCC341` (stereo unspecified), the LC retention time is 4.8 min.
In the case of `CCC(=O)OC(Cc1ccccc1)(c1ccccc1)C(C)CN(C)C` (stereo unspecified), the LC retention time was 19.6 min.
With `Nc1ccc2c(c1)C(c1ccccc1)=NCC(=O)N2`, the LC retention time was 6.2 min.
In the case of `CC(N)Cc1ccccc1` (stereo unspecified), the LC retention time was 7.5 min.
With `CN1C(=O)CCC1c1cccnc1` (stereo unspecified) the figure was 3.6 min.
Turning to `CNC(C)C(=O)c1ccccc1` (stereo unspecified), the LC retention time was 5.6 min.
`CCC(=O)C(CC(C)N(C)C)(c1ccccc1)c1ccccc1` (stereo unspecified): the LC retention time is 20.2 min.
For the compound `COc1ccc2c3c1OC1C(=O)CCC4(O)C(C2)N(C)CCC314` (stereo unspecified), the LC retention time was 5.4 min.
On to `Cn1c(=O)c2c(ncn2C)n(C)c1=O`, for which the LC retention time was 9 min.
For the compound `CC(=O)OC1C=CC2C3Cc4ccc(O)c5c4C2(CCN3C)C1O5` (stereo unspecified), the LC retention time is 6.4 min.
Take `COc1ccc2c3c1OC1C(O)CCC4C(C2)N(C)CCC341` (stereo unspecified): the LC retention time is 4.6 min.
With `COC12CCC3(CC1C(C)(O)C(C)(C)C)C1Cc4ccc(O)c5c4C3(CCN1CC1CC1)C2O5` (stereo unspecified) the figure was 17.3 min; with `CC(=O)Oc1ccc2c3c1OC1C(OC(C)=O)C=CC4C(C2)N(C)CCC341` (stereo unspecified), 11.4 min.
With `CNC(C)C(O)c1ccccc1` (stereo unspecified) the figure was 5.9 min.
As to `CCCc1nn(C)c2c(=O)[nH]c(-c3cc(S(=O)(=O)N4CCN(C)CC4)ccc3OCC)nc12`, the LC retention time was 18.8 min.
On to `CCC(=O)OC(Cc1ccccc1)(c1ccccc1)C(C)CNC` (stereo unspecified), for which the LC retention time is 20.1 min.
For the compound `CNCC1CCCCC1(O)c1cccc(OC)c1` (stereo unspecified), the LC retention time is 12.5 min.
In the case of `CC(N)C(O)c1ccccc1` (stereo unspecified), the LC retention time is 5.2 min.
With `c1ccc(CN2CCNCC2)cc1` the figure was 4.3 min; with `CNC(C)Cc1ccccc1` (stereo unspecified), 7.9 min.
With `COc1cc(CCN)cc(OC)c1OC` the figure was 7 min; with `c1ccc(C2(N3CCCCC3)CCCCC2)cc1`, 14.7 min.
Consider `CCN(CC)C(=O)C1C=C2c3cccc4[nH]cc(c34)CC2N(C)C1` (stereo unspecified), for which the LC retention time is 13.8 min.
As to `COC(=O)C1=CCC2CCC1N2C` (stereo unspecified), the LC retention time was 3.6 min.
Regarding `CC(N)Cc1ccc2c(c1)OCO2` (stereo unspecified), the LC retention time was 8.1 min.
`CN(C)CCC=C1c2ccccc2CSc2ccccc21`: the LC retention time is 19.2 min.
With `COc1cccc(C2(O)CCCCC2CN(C)C)c1` (stereo unspecified), the LC retention time is 11.4 min.
Regarding `CCC(N)Cc1ccc2c(c1)OCO2` (stereo unspecified), the LC retention time is 10.3 min.
As for `CCOP(=O)(Sc1ccccc1)Sc1ccccc1`, the LC retention time is 16.7 min.
For the compound `CN1CCCC1c1cccnc1` (stereo unspecified), the LC retention time was 3.3 min.
For `COc1ccc(C(CN(C)C)C2(O)CCCCC2)cc1` (stereo unspecified), the LC retention time was 15.4 min.
On to `Cn1c(=O)[nH]c2ncn(C)c2c1=O`, for which the LC retention time was 6.1 min.
For `Cc1ccccc1-n1c(C)nc2ccccc2c1=O`, the LC retention time is 20.2 min.
For the compound `COc1ccc2c3c1OC1C(O)C=CC4C(C2)NCCC341` (stereo unspecified), the LC retention time was 5.1 min.
With `CCNC(C)Cc1ccc2c(c1)OCO2` (stereo unspecified), the LC retention time was 9.4 min.
As for `CN1CCC23c4c5ccc(O)c4OC2C(=O)CCC3(O)C1C5` (stereo unspecified), the LC retention time was 3.6 min.
With `COC(=O)C1C(OC(=O)c2ccccc2)CC2CCC1N2C` (stereo unspecified) the figure was 11.8 min; with `CN1CCC23c4c5ccc(O)c4OC2C(O)C=CC3C1C5` (stereo unspecified), 3.5 min; with `Oc1ccc2c3c1OC1C(O)C=CC4C(C2)NCCC341` (stereo unspecified), 3.5 min.
Consider `CCC(Cc1ccc2c(c1)OCO2)NC` (stereo unspecified), for which the LC retention time is 10.3 min.
As for `COC(=O)C1C2CCC(CC1OC(=O)c1ccccc1)N2` (stereo unspecified), the LC retention time was 12.8 min.
Regarding `CCOC(=O)C1C(OC(=O)c2ccccc2)CC2CCC1N2C` (stereo unspecified), the LC retention time was 13.9 min.
With `CN1C2CC=C(C(=O)O)C1CC2` (stereo unspecified), the LC retention time was 3 min.
`CN1C2CCC1C(C(=O)O)C(OC(=O)c1ccccc1)C2` (stereo unspecified): the LC retention time was 10.7 min.
